Test results published in patent publication US7368606B2, “Amorphous cinacalcet hydrochloride and preparation thereof” (Teva Pharmaceutical Industries Ltd., priority 2005, dated 2008).

What was measured:
[1] = Stability of amorphous cinacalcet HCl on storage at ambient temperature (PXRD); assay type: physicochemical; settings: stored at ambient temperature in a closed bottle for 2 months, hydrochloride
Experimental: Powder X-Ray powder diffraction data were obtained using a […] powder X-Ray diffractometer model X'TRA equipped with a solid state detector and a variable gonimeter. Copper radiation of 1.5418 Å was used. A round standard aluminum sample holder with round zero background, and cavity of 25(diameter)*0.5(dept) mm. Scanning parameters were in the range of 2-40°2θ and a continuous scan rate of 3°/min.

[2] = Water content and solid form of amorphous cinacalcet HCl after exposure to humidity (KF titration, PXRD); assay type: physicochemical; settings: 100 percent relative humidity; for Solid form by PXRD after exposure to humidity (physical stability): hydrochloride
Experimental: Powder X-Ray powder diffraction data were obtained using a SCINTAG powder X-Ray diffractometer model X'TRA equipped with a solid state detector and a variable gonimeter. Copper radiation of 1.5418 Å was used. A round standard aluminum sample holder with round zero background, and cavity of 25(diameter)*0.5(dept) mm. Scanning parameters were in the range of 2-40°2θ and a continuous scan rate of 3°/min.
100 mg amorphous cinacalcet HCl was spread as a thin layer, and exposed to 100 percent relative humidity for 8 days. The sample was than tested by PXRD and by Karl Fischer (“KF”) titration. Amorphous cinacalcet HCl was obtained with water content of 1.4 percent.

Solid form by PXRD after storage (physical stability) [1]: amorphous content
Solid form by PXRD after storage (physical stability) ([1]; listed as Amorphous cinacalcet): stable under prolonged storage
Water content by Karl Fischer titration after exposure to humidity ([2]; 100 mg spread as a thin layer, 8 days): 1.4%
Solid form by PXRD after exposure to humidity (physical stability) ([2]; 8 days, listed as Amorphous cinacalcet): stable at high humidity levels
Solid form by PXRD after exposure to humidity (physical stability) ([2]; 8 days, listed as amorphous cinacalcet HCl): Amorphous
Hygroscopicity ([2]; as shown in Example 2): non-hygroscopic
Compound: C[C@@H](NCCCc1cccc(C(F)(F)F)c1)c1cccc2ccccc12.Cl [Amorphous Cinacalcet HCl, Cinacalcet hydrochloride]
